Patent US20070225170A1, “2-Halo-6-Alkylphenyl-Substituted Tetramic Acid Derivatives” (BAYER CROPSCIENCE AKTIENGESELLSCHAFT, priority 2003, published 2007)

How the values were obtained:
Meloidogyne incognita = experiment: Meloidogyne test; type: in vivo; conditions: 20 ppm; nematicidal action by formation of galls on lettuce roots
Experimental: To produce a suitable preparation of active compound, 1 part by weight of active compound is mixed with the stated amounts of solvent and emulsifier, and the concentrate is diluted with water to the desired concentration.
Vessels are filled with sand, solution of active compound, Meloidogyne incognita egg/larvae suspension and lettuce seeds. The lettuce seeds germinate and the plants develop. On the roots, galls develop.
After the desired period of time, the nematicidal action is determined in % by the formation of galls. 100%, means that no galls have been found; 0% means that the number of galls on the treated plants corresponds to that of the untreated control.

Amaranthus = experiment: Herbicidal post-emergence action, greenhouse; type: in vivo; conditions: 320 g of a.i./ha, second series (T27, T28)
Experimental: (§1) Herbicidal Post-Emergence Action
(§2) Seeds of monocotyledonous and dicotyledonous weed and crop plants are placed into sandy loam in wood fibre pots, covered with soil and cultivated in a greenhouse under good growth conditions. 2-3 weeks after sowing, the test plants are treated at the one-leaf stage. The test compounds, formulated as wettable powders (WP), are, in various dosages with a water application rate of 600 l/ha (converted), with 0.2% of wetting agent added, sprayed onto the green parts of the plants. After the test plants were kept in the greenhouse under optimum growth conditions for about 3 weeks, the effect of the preparations is rated visually in comparison to untreated controls (herbicidal effect in percent (%): 100% effect=the plants have died, 0% effect=like control plants).

Avena sativa = experiment: Herbicidal post-emergence action, greenhouse; type: in vivo; conditions: 320 g of a.i./ha, greenhouse (T22-T24)
Experimental: as §1, §2

Lolium = experiment: Herbicidal post-emergence action, greenhouse; type: in vivo; conditions: 320 g of a.i./ha
Experimental: as §1, §2

Setaria = experiment: Herbicidal post-emergence action, greenhouse; type: in vivo; conditions: 320 g of a.i./ha
Experimental: as §1, §2

Stellaria = experiment: Herbicidal post-emergence action, greenhouse; type: in vivo; conditions: 320 g of a.i./ha
Experimental: as §1, §2

[1] = tested on: greenhouse red spider mite (Tetranychus urticae); experiment: Tetranychus test (OP-resistant/spray treatment); type: in vivo
Experimental: Tetranychus Test (OP-Resistant/Spray Treatment)
To produce a suitable preparation of active compound, 1 part by weight of active compound is mixed with the stated amounts of solvents and emulsifier, and the concentrate is diluted with emulsifier-containing water to the desired concentration.
Discs of bean leaves (Phaseolus vulgaris), which are infested by all stages of the greenhouse red spider mite (Tetranychus urticae), are sprayed with a preparation of active compound of the desired concentration.
After the desired period of time, the activity in % is determined. 100% means that all spider mites have been killed; 0% means that none of the spider mites have been killed.

[2] = tested on: larvae of the mustard beetle (Phaedon cochleariae); experiment: Phaedon test (spray treatment); type: in vivo; conditions: 100 g/ha
Experimental: Phaedon Test (Spray Treatment) To produce a suitable preparation of active compound, 1 part by weight of active compound is mixed with the stated amounts of solvents and emulsifier, and the concentrate is diluted with emulsifier-containing water to the desired concentration. Discs of Chinese cabbage (Brassica pekinensis) are sprayed with a preparation of active compound of the desired concentration and, after they have dried, populated with larvae of the mustard beetle (Phaedon cochleariae).

Sinapis = experiment: Herbicidal post-emergence action, greenhouse; type: in vivo; conditions: 320 g of a.i./ha, greenhouse (T22)
Experimental: as §1, §2

Summer wheat = experiment: Container trials with cereals in the greenhouse, without/with safener; conditions: in vivo
Summer barley = experiment: as above; conditions: in vivo
[3] = greenhouse, second series (T25-T28)
[4] = greenhouse, second series (T26, T28)

Compound	Effect in % after 14d (Meloidogyne incognita) [%]	herbicidal effect, Amaranthus (Amaranthus) [%]	herbicidal effect, Avena sativa (Avena sativa) [%]	herbicidal effect, Lolium (Lolium; greenhouse (T22-T24)) [%]	herbicidal effect, Lolium (Lolium; [3]) [%]	herbicidal effect, Setaria (Setaria; greenhouse (T22-T24)) [%]	herbicidal effect, Setaria (Setaria; [3]) [%]	herbicidal effect, Stellaria (Stellaria; greenhouse (T23)) [%]	herbicidal effect, Stellaria (Stellaria; [4]) [%]	Kill rate in % after 5d ([1]; 100 g/ha) [%]	Kill rate in % after 7d [2] [%]	herbicidal effect, Sinapis (Sinapis) [%]	Summer wheat observed (%) (Summer wheat)	Kill rate in % after 5d ([1]; 500 g/ha) [%]	Summer barley observed (%) (Summer barley)
CCc1cc(C)cc(Br)c1C1=C(O)C2CCCN2C1=O (centres unmarked) [I-a-1]	80	100	90	100	90	90	90	70	70	–	–	–	–	–	–
CCc1cc(C)cc(Br)c1C1=C(O)C(C)N(CC)C1=O (centres unmarked) [I-a-5]	–	–	80	90	–	100	–	–	–	90	–	–	–	–	–
CCc1cc(C)cc(Br)c1C1=C(O)C(CC)N(C)C1=O (centres unmarked) [I-a-6]	–	–	80	100	–	100	–	–	–	80	100	70	–	–	–
CCc1cc(C)cc(Br)c1C1=C(O)CN(C2CC2)C1=O [I-a-7]	–	–	90	100	100	100	80	–	80	–	100	70	–	–	–
CCc1cc(C)cc(Br)c1C1=C(OC(=O)C(C)(C)C)C2CCCN2C1=O (centres unmarked) [I-b-1]	–	70	90	90	100	90	100	–	–	–	–	–	–	–	–
CCc1cc(C)cc(Br)c1C1=C(OC(=O)C(C)C)C(C)(C)NC1=O [I-b-2]	–	–	90	100	–	100	–	–	–	–	–	70	–	–	–
CCOC(=O)OC1=C(c2c(Br)cc(C)cc2CC)C(=O)N(C)C1CC (centres unmarked) [I-c-6]	–	–	80	90	80	100	80	–	70	70	–	–	15	–	–
CCOC(=O)OC1=C(c2c(Br)cc(C)cc2CC)C(=O)N(CC)C1C (centres unmarked) [I-c-7]	–	–	80	90	–	100	–	–	–	–	–	–	–	90	10
